Measurements reported in article PMC10424716, “Discovery selective acetylcholinesterase inhibitors to control Tetranychus urticae (Acari: Tetranychidae)” (Journal of Insect Science, 2023).
Read-outs that look alike come from different tables or passages of the source.

Molecular target: T1, T. urticae AChE (TuAChE) (Tetranychus cinnabarinus, UniProt M9T420)
T1 construct: gene ace1; methods also mention mite extracts
T1 sequence (M9T420 1-687): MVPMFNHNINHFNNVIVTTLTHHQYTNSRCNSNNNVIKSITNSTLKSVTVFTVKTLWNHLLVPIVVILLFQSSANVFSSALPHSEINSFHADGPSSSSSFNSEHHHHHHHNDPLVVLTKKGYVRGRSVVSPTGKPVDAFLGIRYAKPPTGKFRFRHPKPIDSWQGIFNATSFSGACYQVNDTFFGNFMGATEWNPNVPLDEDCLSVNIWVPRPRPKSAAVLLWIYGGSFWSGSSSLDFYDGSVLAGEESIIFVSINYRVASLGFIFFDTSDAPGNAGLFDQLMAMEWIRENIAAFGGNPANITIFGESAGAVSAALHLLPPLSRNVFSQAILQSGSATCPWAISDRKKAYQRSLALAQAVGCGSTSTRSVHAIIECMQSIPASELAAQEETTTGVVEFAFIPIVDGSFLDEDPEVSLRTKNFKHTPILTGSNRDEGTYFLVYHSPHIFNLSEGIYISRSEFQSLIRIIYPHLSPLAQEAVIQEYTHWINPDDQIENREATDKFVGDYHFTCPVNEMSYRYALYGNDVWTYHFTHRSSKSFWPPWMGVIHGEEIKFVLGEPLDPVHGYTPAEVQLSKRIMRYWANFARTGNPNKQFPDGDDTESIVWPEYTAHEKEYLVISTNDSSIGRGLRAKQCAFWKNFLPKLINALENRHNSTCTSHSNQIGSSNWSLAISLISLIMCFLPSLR
Experiment: modified Ellman assay, […] nm
Type: biochemical

SMILES | IC50 (read-out: IC50(mM) / TuAChE) | IC50
O=C(c1ccc2occc2c1)N1CCC(OCc2ccccc2)CC1 [compound 8, 1-(1-benzofuran-5-ylcarbonyl)-4-(benzyloxy) piperidine] | 1.51 mM | –
CNC(=O)Oc1ccc2c(c1)[C@]1(C)CCN(C)[C@@H]1N2C [eserine] | – | 3.81 mM
